The text below walks through data of patent US9618524B2, “Method, composition, isolation and identification of a plaque particle and related biomarker” (Plaxgen Inc., priority 2012, dated 2017).

Common to all, as to test: Mass spectroscopy proteomics, semi-quantitative binding affinity of serum proteins (plaqueproteome, Table 2)
Settings in all cases: higher number = stronger affinity

The target in assay [1] is T1, Abeta-42 plaque particles (Homo sapiens, UniProt P05067).
T1 construct: Abeta 1-42
As to the method:
Next to isolate serum derived Abeta-42 plaque particles, the plasma or serum samples obtained from AD subjects were first centrifuged at 5,000 rpm for 5 min and the supernatants were transferred to new centrifuge tubes. Next, the supernatants were diluted in PBS to make 50% of the serum and plasma samples and used for incubation with Abeta-42 plaque oligomers/aggregates. Each assay was performed in 1 mL reaction (800 μL of 50% plasma or serum) and 200 μL (30 μg) of the Abeta-42 aggregates and the mixtures were incubated at 37° C. for 1 hr. To the mixture Thioflavin S dye (120 μg) was added and the sample was incubated for additional 30 min at 37° C. After the incubation, the mixture was directly used for sample acquisition using flow cytometer (FACS ARIA II, BD Biosciences, San Jose, Calif.). After initial detection of Abeta-42 plaque particles in the acquisition blot, gates were drawn in fluorescent dot blot to separately sort and isolate fluorescently labeled Abeta-42 particles.
(§1) For preparing trypsin digested peptide sequences, the isolated plaque particles were centrifuged at 10000 rpm for 5 min and the pellet containing plaque particles was resuspended in 100 μl PBS buffer. Stock solutions of digestion buffer (Ammonium Biocarbonate 50 mM), reducing buffer (DDT 100 mM) and alkylation buffer (lodoaceamide 100 mM) were prepared and stored at −20° C. for up to two months. For trypsin digestion, 100 μl of each plaque particles (2000 of Abeta-42, cholesterol, Tau and alpha-synuclein) were precipitated using cold acetone −80° C. by adding 4X's the volume. The samples were placed on dry ice for 10 min with intermittent vortex. Next, the samples were centrifuged at 4° C. at 10000 G for 10 min. Top layer of acetone was carefully removed from the tube with care not to disturb the plaque particles pellet. The samples were speed-vac for 10 min to ensure all acetone has been boiled away. The plaque particles pellet were reconstituted with 15 μl 8M Urea 100 mM Ammonium bicarbonate stock and 20 μl protease max solution. The protease max solution (Promega, Madison, Wis.) was prepared from stock by adding 60 μl 50 mM Ammonium bicarbonate and used for 3 solution digests (20 μl each). […] The tubes were incubated at 55° C. for 30 minutes. The tubes were then removed and brought to the room temperature followed by addition of 3.2 μl of 1M acrylamide and incubated at room temperature for 30 minutes. To the sample, 63 μL of 50 mM Ammonium bicarbonate was added for a final volume of 98 μl and 2 μl of trypsin (10 μg, Trypsin/Lys C Mix). After mixing the solution with pipet the samples were incubated at 37° C. overnight. After the overnight digest, the tryptic digest were quenched and acidified by adding 10 μl of 50% formic acid/water stock dilution. The samples were centrifuged at 10000 G for 2 minutes and purified using stage tip and used for MS/Mass analysis.
(§2) All MS/MS samples were analyzed using Sequest (Thermo Fisher Scientific, San Jose, Calif., USA; version 1.0). Sequest was set up to search the SUMS_uniprot_Human database (35847 entries) assuming the digestion enzyme strict trypsin. Sequest was searched with a fragment ion mass tolerance of 1.00 Da and a parent ion tolerance of 20 PPM. Propionamide of cysteine was specified in Sequest as a fixed modification. Oxidation of methionine and phospho of serine, threonine and tyrosine were specified in Sequest as variable modifications.
Scaffold (version Scaffold_4.2.1, Proteome Software Inc., Portland, Oreg.) was used to validate MS/MS based peptide and protein identifications. […] Protein probabilities were assigned by the Protein Prophet algorithm (Nesvizhskii, Al et al 2003). […] Proteins sharing significant peptide evidence were grouped into clusters. Proteins were annotated with GO terms from NCBI (downloaded Jan. 17, 2014).

The target of assay [2] is T2, alpha-synuclein plaque particles (Homo sapiens, UniProt P37840).
T2 construct: 140 amino acids polypeptide
As to the method:
To prepare oligomers/aggregates of human alpha-synuclein (140 amino acids polypeptide), 1 mg of the recombinant alpha-synuclein protein was suspended in 1 mL of PBS and the sample was incubated at 37° C. for 2 hrs. After incubation, all the samples were centrifuged for 5 min. at 5000 rpm to remove precipitate, if any, and the supernatant containing oligomers/aggregates were used in vitro plaque particles formation assay. For detecting alpha-synuclein plaque particles Thioflavin S (Ex/Em=430 nm/550 nm) amyloid binding fluorescent dye (10 μg) was used.
Similarly, to isolate alpha-synuclein plaque particles, diluted plasma or serum samples obtained from AD subjects were used for incubation with alpha-synuclein plaque oligomers/aggregates. Each assay was performed in 1 mL reaction (800 μL of 50% plasma or serum) and 200 μL (30 μg) of the alpha-synuclein aggregates and the mixtures were incubated at 37° C. for 1 hr. To the mixture Thioflavin S dye (120 μg) was added and the sample was incubated for additional 30 min at 37° C. After the incubation, the mixture was directly used for sample acquisition using flow cytometer (FACS ARIA II, BD Biosciences, San Jose, Calif.). After initial detection of alpha-synuclein plaque particles, gates were drawn in the acquisition blot to separately sort and isolate fluorescently labeled alpha-synuclein particles.
as §1, §2
Scaffold (version Scaffold_4.2.1, Proteome Software Inc., Portland, Oreg.) was used to validate MS/MS based peptide and protein identifications.

Assay [3] relates to Low density cholesterol (Chl small) plaque particles. Details: species or system human. As to the method: (§3) The goal was to isolate plaque particles synthesized in the bio-fluids in a relatively pure form to enable their subsequent use for identification of components that contribute to the plaque formation. In order to isolate cholesterol plaque particles, the plasma or serum samples obtained from atherosclerotic subjects were first centrifuged at 5,000 rpm for 5 min and the supernatants were transferred to new centrifuge tubes. Next, the supernatants were diluted in PBS to make 50% of the serum and used for incubation with cholesterol oligomers/aggregates. Each assay was performed in 1 mL reaction (800 μL of 50% plasma or serum) and 200 μL (30 μg) of the Cholesterol aggregates and the mixtures were incubated at 37° C. for 1 hr After the incubation, the mixture was directly used for sample acquisition using flow cytometer (FACS ARIA II, BD Biosciences, San Jose, Calif.). […] In order to isolate these fractions, three sets of gates were drawn in the acquisition blot to separately sort and isolate High density or high complex cholesterol particles, Low density or low complex cholesterol particles and both High and low density cholesterol particles together.
as §1, §2
(§4) Scaffold (version Scaffold_4.2.1, Proteome Software Inc., Portland, Oreg.) was used to validate MS/MS based peptide and protein identifications. […] Protein probabilities were assigned by the Protein Prophet algorithm (Nesvizhskii, Al et al 2003).

Assay [4] relates to High Density cholesterol (Chl Large) plaque particles. Details: species or system human. As to the method: as §3, §1, §2, §4
The subject of assay [5] is Tau plaque particles. Details: species or system human. On the procedure:
For Tau-74 (74-102) (Exon 3/Insert 2 domain) preparation, 1 mg of Tau-74 was suspended in 1 mL of PBS and the sample was incubated at 37° C. for 2 hrs. Similarly for preparing Tau-275 (275-305) (Repeat 2 domain) 1 mg of the peptide was suspended in 1 mL of PBS and the sample was incubated at 37° C. for 2 hrs. After incubation, all the samples were centrifuged for 5 min. at 5000 rpm to remove precipitate, if any, and the supernatant containing oligomers/aggregates were used for in vitro amyloid plaque particles formation assay. For detecting Tau plaque particles, Thioflavin S (Ex/Em=430 nm/550 nm) amyloid binding fluorescent dye (10 μg) was used in the assay.
Next, to isolate Tau plaque particles, as performed for Abeta-42 and Abeta-28 plaque particles isolation, diluted serum samples were used for incubation separately with Tau-45, Tau-74 and Tau-275 oligomers/aggregates. Each assay was performed in 1 mL reaction (800 μL of 50% plasma or serum) and 200 μL (30 μg) of each Tau aggregates and the mixtures were incubated at 37° C. for 1 hr. To the each mixture Thioflavin S dye (120 μg) was added and the sample was incubated for additional 30 min at 37° C. After the incubation, each sample was directly used for sample acquisition using flow cytometer (FACS ARIA II, BD Biosciences, San Jose, Calif.). After initial detection of Tau plaque particles, gates were drawn in the acquisition blot to separately sort and isolate fluorescently labeled Tau plaque particles.
as §1, §2

For Alpha-1-acid glycoprotein 1, the “Semi-quantitative analysis of proteins binding to different plaque particles: Abeta-42” value in assay [1] amounted to 12. In assay [2], the “Semi-quantitative analysis of proteins binding to different plaque particles: Synuclein” value was determined as 7. The “Semi-quantitative analysis of proteins binding to different plaque particles: Chl small” value in assay [3] is reported as 8. Moreover, the “Semi-quantitative analysis of proteins binding to different plaque particles: Chl Large” value in assay [4] is recorded as 9. Moreover, the “Semi-quantitative analysis of proteins binding to different plaque particles: Tau” value in assay [5] is 11.
For the substance Alpha-1-antitrypsin, the “Semi-quantitative analysis of proteins binding to different plaque particles: Synuclein” value in assay [2] was 20. For the same substance, the “Semi-quantitative analysis of proteins binding to different plaque particles: Chl small” value in assay [3] turned out to be 21. Also, in assay [4], the “Semi-quantitative analysis of proteins binding to different plaque particles: Chl Large” value was 22. In addition, in assay [5], the “Semi-quantitative analysis of proteins binding to different plaque particles: Tau” value came out at 28.
Turning to Alpha-1B-glycoprotein, the “Semi-quantitative analysis of proteins binding to different plaque particles: Abeta-42” value in assay [1] is listed as 4. Besides, in assay [2], the “Semi-quantitative analysis of proteins binding to different plaque particles: Synuclein” value was 11. In assay [3], the “Semi-quantitative analysis of proteins binding to different plaque particles: Chl small” value is given as 7. Besides, the “Semi-quantitative analysis of proteins binding to different plaque particles: Chl Large” value in assay [4] amounted to 7. Further, the “Semi-quantitative analysis of proteins binding to different plaque particles: Tau” value in assay [5] was determined as 6.
As for Alpha-2-macroglobulin, the “Semi-quantitative analysis of proteins binding to different plaque particles: Abeta-42” value in assay [1] stood at 32. Also, the “Semi-quantitative analysis of proteins binding to different plaque particles: Synuclein” value in assay [2] is listed as 44. Further, in assay [3], the “Semi-quantitative analysis of proteins binding to different plaque particles: Chl small” value is reported as 43. For the same substance, in assay [4], the “Semi-quantitative analysis of proteins binding to different plaque particles: Chl Large” value turned out to be 43. Further, in assay [5], the “Semi-quantitative analysis of proteins binding to different plaque particles: Tau” value amounted to 45.
As to Antithrombin-III, in assay [1], the “Semi-quantitative analysis of proteins binding to different plaque particles: Abeta-42” value was 5. In assay [2], the “Semi-quantitative analysis of proteins binding to different plaque particles: Synuclein” value turned out to be 9. In addition, the “Semi-quantitative analysis of proteins binding to different plaque particles: Chl small” value in assay [3] was 6. In addition, the “Semi-quantitative analysis of proteins binding to different plaque particles: Chl Large” value in assay [4] is recorded as 8. The “Semi-quantitative analysis of proteins binding to different plaque particles: Tau” value in assay [5] came to 6.
Take Apolipoprotein A-I: the “Semi-quantitative analysis of proteins binding to different plaque particles: Abeta-42” value in assay [1] came to 19. Also, the “Semi-quantitative analysis of proteins binding to different plaque particles: Synuclein” value in assay [2] came to 18. Moreover, the “Semi-quantitative analysis of proteins binding to different plaque particles: Chl small” value in assay [3] is on record as 21. Also, the “Semi-quantitative analysis of proteins binding to different plaque particles: Chl Large” value in assay [4] stood at 21. Moreover, the “Semi-quantitative analysis of proteins binding to different plaque particles: Tau” value in assay [5] was determined as 14.
Apolipoprotein A-II: in assay [1], the “Semi-quantitative analysis of proteins binding to different plaque particles: Abeta-42” value worked out at 5. In addition, the “Semi-quantitative analysis of proteins binding to different plaque particles: Synuclein” value in assay [2] is reported as 7. The “Semi-quantitative analysis of proteins binding to different plaque particles: Chl small” value in assay [3] was determined as 6. Also, the “Semi-quantitative analysis of proteins binding to different plaque particles: Chl Large” value in assay [4] was 8. Besides, the “Semi-quantitative analysis of proteins binding to different plaque particles: Tau” value in assay [5] worked out at 10.
In the same order, the values of Apolipoprotein B-100 are 62, 42, 51, 47 and 65.
In the same order, the values of “Apolipoprotein C-I (TPDVSSALDKLKEFGNTLEDKARELISRIKQSELSAKMREWFSETFQKVKEKLKIDS)” are 2, 0, 1, 1 and 1.
For the substance Apolipoprotein C-III, in assay [1], the “Semi-quantitative analysis of proteins binding to different plaque particles: Abeta-42” value turned out to be 4. The “Semi-quantitative analysis of proteins binding to different plaque particles: Synuclein” value in assay [2] turned out to be 1. For the same substance, the “Semi-quantitative analysis of proteins binding to different plaque particles: Chl small” value in assay [3] worked out at 4. In assay [4], the “Semi-quantitative analysis of proteins binding to different plaque particles: Chl Large” value is on record as 4. The “Semi-quantitative analysis of proteins binding to different plaque particles: Tau” value in assay [5] was 5.
For Apolipoprotein E, the “Semi-quantitative analysis of proteins binding to different plaque particles: Synuclein” value in assay [2] is 8. In addition, the “Semi-quantitative analysis of proteins binding to different plaque particles: Chl small” value in assay [3] is given as 9. Besides, the “Semi-quantitative analysis of proteins binding to different plaque particles: Chl Large” value in assay [4] was determined as 7. For the same substance, the “Semi-quantitative analysis of proteins binding to different plaque particles: Tau” value in assay [5] is listed as 13.
For Cluster of Alpha-1-antitrypsin, in that order: 20, 21, 22 and 28.
